Reference: ChEMBL document CHEMBL1127766, “Stereochemical approach for enzyme inhibitor design” (Bioorg Med Chem Lett, 1994)
“And” between values parts separate entries of the source, which are not always exact repeats. Equal entries are not always repeated.

How the values were obtained:
Chymotrypsinogen A = Chymotrypsinogen A (Bos taurus, UniProt P00766); assay: Binding affinity against alpha-chymotrypsin
[1] = target: Chymotrypsinogen A (Bos taurus) (UniProt P00766)

Ki (Chymotrypsinogen A): 9.95 mM and 3.23 mM
Kiact [1]: 5.24 min⁻¹
Compound: COC(=O)[C@@H](Cc1ccccc1)[C@H]1CO1
